The source of these data is US20200069609A1 (WIGEN BIOMEDICINE TECHNOLOGY (SHANGHAI) CO., LTD., priority 2017, published 2020).

Experiment [1] relates to LC3B mutants K8A, K30A, K39A, K42A, K51A, K65A, K103A, K122A. As to the kind of experiment: Protein thermal shift assay on lysine-to-alanine mutants other than K49A. Type of experiment: binding, human. The conditions noted are these: all lysine-to-alanine mutants except K49A; protein 4 μM, compound 40 μM. As for the experimental part: (§1) The protein thermal shift assay is used to test the effect of compounds on the thermodynamic stability of proteins via the Quant Studio 6 Flex Real-Time PCR system. Protein LC3B (1-125) (SEQ ID NO: 3) and each mutant protein (SEQ ID NO: 7-15) (final concentration 4 μM), environmentally sensitive dye (5×SYPRO orange, Invitrogen) and compound (final concentration 40 μM) were mixed in the buffer solution (50 mM HEPES pH 7.5, 1 mM DTT) to a total volume of 20 μL. The sample was heated from 25° C. to 95° C. with a heating rate of 3%. Changes in fluorescence intensity were monitored and each melting temperature (Tm), represented by AT in the unit of ° C., was calculated by Protein Thermal Shift Software 1.1 (ABI).
(§2) LC3B totally has 9 lysines, and for investigating the site selectivity of Compound A, all the 9 lysines were mutated to alanine (K8A, K30A, K39A, K42A, K49A, K51A, K65A, K103A, K122A; SEQ ID NO:7-15).

Another experiment has as its target T1, GST-LC3B (Homo sapiens, UniProt Q9GZQ8).
T1 construct: This fusion protein was used directly in the fluorescence polarization assay; made in house
As to the kind of experiment: Fluorescence polarization (FP) assay, GST-LC3B with FITC-labeled peptide. The settings on record: GST-LC3B 180 nM, FITC-labeled peptide 18 nM. Type of experiment: binding. Here is the method: (§3) GST-LC3B (1-125) (SEQ ID NO: 2) and each mutant protein were expressed by IPTG induction in DE3 competent cells at 16° C. After collecting and resuspending DE3 competent cells, the cells were sonicated and centrifuged. The resulted supernatant was hanged on the column (GSTrap FF, GE), followed by eluting with glutathione-containing eluant, and then the target protein was produced by gel filtration chromatography. This fusion protein was used directly in the fluorescence polarization assay. The proteins used in the protein thermal shift assay, mass spectrometry, and protein crystallization experiments were produced by PP enzyme or thrombin digestion and the following gel filtration chromatography to the GST-fusion protein obtained by the above method.
Recombinant protein GST-LC3B (final concentration 180 nM) (SEQ ID NO: 2) and N-terminal FITC-labeled peptide (SEQ ID NO: 5, final concentration 18 nM) were placed in FP buffer solution (50 mM HEPES pH 7.5, 0.1 mg/ml BSA and 1 mM DTT), into which the compound gradually diluted by the FP buffer was added, then the resulted mixture was incubated in dark at 25° C. Fluorescence polarization values were monitored (PerkinElmer Envision, the wavelength of the […]) and the IC50 values were calculated by the GraphPad Prism 6.0 program.
Representation of the IC50 value of the compounds: “[…]<IC50≤1 mM” is considered as having low activity (+) against LC3B. “15 μM<<IC50≤100 μM” of the compound is considered as having moderate activity (++) against LC3B. “3 μM<IC50≤15 μM” is considered as having high activity (+++) against LC3B. “IC50≤3 μM” is considered as having higher activity (++++) against LC3B.
For orientation: Fluorescence polarisation rises when a labelled molecule tumbles more slowly, as on binding a larger partner.

For a further experiment, the target named is T2, LC3B K49A mutant (Homo sapiens, UniProt Q9GZQ8, K49A).
T2 construct: GST (N, cleaved yes); made in house
As to the kind of experiment: Protein thermal shift assay on K49A mutant. In kind it is binding. Here is the method:
as §1, §2

The next experiment concerns the target T3, LC3B (2-119) (Homo sapiens, UniProt Q9GZQ8).
T3 construct: GST (N, cleaved yes); made in house
As to the kind of experiment: Crystal complex structure of LC3B protein and small molecule. The conditions noted are these: crystal soaked with compound 1-5 mM. As for the experimental part:
A vacant protein crystal of LC3B (2-119) (SEQ ID NO: 4) was obtained by the sit-drop method, and then the crystal was taken out and soaked in a bath containing Compound A with a final concentration of 1-5 mM. The diffraction data were collected at the 19U1 line station of Shanghai Synchrotron Radiation Facility. And the diffraction data were integrated by XDS software and then compressed by Aimless module in CCP4. The LC3B protein structure with a PDB number of 3VTU was used as a template to perform molecular replacement by Phaser module to obtain the initial phase information, and then final refinement was performed by PHENIX and COOT.

For experiment [2], the target named is T4, LC3B (1-125) (Homo sapiens, UniProt Q9GZQ8).
T4 construct: GST (N, cleaved yes); made in house
As to the kind of experiment: Protein thermal shift assay. In kind it is binding. The settings on record: protein 4 μM, compound 40 μM. Here is the method: as §3, §1

Experiment [3] deals with T4, LC3B (1-125). As to the kind of experiment: Mass spectrometry of LC3B incubated with compound. The conditions noted are these: trypsin digest, b and y type ions. Here is the method: For further verifying the covalent binding, LC3B (1-125) (SEQ ID NO: 3) protein was separately incubated with compounds B, C and D for mass spectrometry.
After incubating the compound and protein for a given period of time, the product was separated by gel electrophoresis, and the protein having an appropriate size was digested by trypsin. The resulting polypeptide was dissolved and loaded onto a C18 reverse-phase column coupled to an EASY-nLC 1000 system. The polypeptide was eluted to perform mass spectrometry and Mascot search.

In the next experiment the test system is Hela cells. As to the kind of experiment: Immunofluorescence staining of autophagosomes in Hela cells. Type of experiment: cell-based. The conditions noted are these: 30 μM or 100 μM for 12 h, then serum-free starvation 24 hours; compared with control group. Here is the method: For further investigating the effects of compounds on cell autophagosomes, Hela cells were seeded onto glass coverslips in 6-well plate and cultured until the cells being in good conditions, which were treated with 30 μM or 100 μM of Compound B for 12 h, then replaced to a serum-free medium and starved for 24 hours. The cells were pre-cooled for 10 minutes, then punched with 0.2% Triton X-100 and stood at room temperature for 10 minutes. Next, the cells were blocked with PBS containing 2.5% BSA and incubated overnight with a 4 degree anti-LC3B primary antibody, after which the primary antibody was recognized with a fluorescent secondary antibody, the nuclei were stained with DAPI and photographed under a microscope.

As to “2-((Dimethyl amino)methyl- ene)-5-(tlhio- phen-2-yl)cyclo- hexane-1,3- dione [Compound A]”, the “thermal shift of LC3B mutants” value in experiment [1] is on record as “significant thermal shift”. Also, at GST-LC3B (Table 1, 25° C.), the IC50 – broadly, the midpoint of a concentration-inhibition curve – stood at 1.56 µM. For the same molecule, the “site selectivity for lysine at position 49 in LC3B” value at LC3B K49A mutant (concluded from thermal shift of the 9 lysine mutants) was “selectively modify the lysine at position 49”. Further, the “covalent linkage in crystal complex” value at LC3B (2-119) is “covalently linked to the lysine residue (ε-amino group) at position 49 in LC3B”. The “ΔT (melting temperature shift)” value at LC3B (1-125) [2] (Table 1) turned out to be 10.37 °C.
As to “LBP2: positive control polypeptide, LBP2 (SEQ ID NO: 6) (GGDDDWTHLSSKEVD; LBP2) [reference compound]”, the “thermal shift of LC3B mutants” value in experiment [1] is recorded as “significant heat shift”. Besides, the “thermal shift of LC3B K49A mutant” value with LC3B K49A mutant (K49A mutant, protein 4 μM, compound 40 μM) was “significant heat shift”.
The molecule `Cc1ccc(C(=O)O)c(C(=O)Nc2ccc(-c3nc4ccc(C)cc4s3)cc2)c1` [compound 2, reference compound] yielded a 50% inhibitory concentration (IC50) against GST-LC3B (Table 2, comparative compounds) of 50 µM. Further, at LC3B (1-125) [2] (Table 2, comparative compounds), the “ΔT (melting temperature shift)” value came out at 0 °C.
For the molecule `NC=C1C(=O)CC(c2ccccc2)CC1=O` (stereo not drawn) [Compound C, 2-(aminomethyl-ene)-5-phenyl-cyclohexane-1,3-dione], the “covalent modification of LC3B by mass spectrometry” value at LC3B (1-125) [3] is on record as “covalently modified the lysine at position 49 in LC3B”. This molecule had an IC50 against GST-LC3B (Table 1, 25° C.) of 28.8 µM. Moreover, the “ΔT (melting temperature shift)” value at LC3B (1-125) [2] (Table 1) amounted to 2.87 °C.
On GST-LC3B (Table 1, 25° C.), `O=C1CC(c2cccc3[nH]ccc23)CC(=O)C1=CO` (stereo not drawn) [Compound I, 2-(hydroxy-methylene)-5-(1H-indol-4-yl)cyclohexane-1,3-dione] registered an IC50 of 0.51 µM. Further, the “covalent linkage in crystal complex” value at LC3B (2-119) is listed as “covalently linked to the lysine residue (ε-amino group) at position 49 in LC3B”. On LC3B (1-125) [2] (Table 1), the “ΔT (melting temperature shift)” value amounted to 13.4 °C.
For `Cc1ccc(NC(=O)CN2CCN(CCNCC3C(=O)CC(c4ccc(C)cc4)CC3=O)CC2)cc1` (stereo not drawn) [Compound B], the “cell autophagosomes (anti-LC3B immunofluorescence)” value in the experiment with Hela cells is listed as “cell autophagosomes accumulated”.
The molecule `Cc1ccc(NC(=O)CN2CCN(CCNC=C3C(=O)CC(c4ccccc4)CC3=O)CC2)cc1` (stereo not drawn) [E] yielded an IC50 against GST-LC3B (Table 1, 25° C.) of 5 µM. For the same molecule, on LC3B (1-125) [2] (Table 1), the “ΔT (melting temperature shift)” value was 10.21 °C.
For `COc1ccc(C2CC(=O)C(=CN(C)C)C(=O)C2)cc1` (stereo not drawn) [Compound D, 2-((Dimethylamino)methyl-ene)-5-(4-methoxyphenyl) cyclohexane-1,3-dione], at LC3B (1-125) [3], the “covalent modification of LC3B by mass spectrometry” value is listed as “covalently modified the lysine at position 49 in LC3B”. The molecule also gave an IC50 against GST-LC3B (Table 1, 25° C.) of 1.46 µM. The “ΔT (melting temperature shift)” value at LC3B (1-125) [2] (Table 1) turned out to be 10.82 °C.
As for `Cc1cc(NS(=O)(=O)c2ccc(NC(=O)c3ccc(C(=O)Nc4ccc(S(=O)(=O)Nc5cc(C)on5)cc4)cc3)cc2)no1` [compound 4, reference compound], inhibition at GST-LC3B (Table 2, comparative compounds) was half-maximal at 28 µM (IC50). For the same molecule, the “ΔT (melting temperature shift)” value at LC3B (1-125) [2] (Table 2, comparative compounds) was 1.8 °C.
For `Cc1ccc(C2CC(=O)C(=CNCCN3CCN(C(=O)C(C)C)CC3)C(=O)C2)cc1` (stereo not drawn) [H], half-maximal inhibition against GST-LC3B (Table 1, 25° C.) (IC50) required 5 µM.
At GST-LC3B (Table 1, 25° C.), “5-phenyl-2- (((2-(4-(benzoyl) piperazin-1-yl) ethyl)amino) methylene) cyclohexane-1,3- dione [G]” gave an IC50 of 4.83 µM. Also, the “ΔT (melting temperature shift)” value at LC3B (1-125) [2] (Table 1) was 9.83 °C.
Take `Cc1ccc2c(C)c(C(=O)Nc3ccc(S(=O)(=O)Nc4onc(C)c4C)cc3)oc2c1` [compound 6, reference compound]: the IC50 against GST-LC3B (Table 2, comparative compounds) was determined as 47 µM. In addition, the “ΔT (melting temperature shift)” value at LC3B (1-125) [2] (Table 2, comparative compounds) is 0 °C.
The like results for `CCOc1c(I)cc(/C=N\Nc2ccc(C(=O)O)cc2)cc1OC` [compound 3, reference compound] were, in that order, 28 µM and 2.1 °C.
On to `CC1=CCC(C(=O)O)C(C(=O)Nc2ccc(-c3nc4ccc(C)cc4s3)cc2)C1` (stereo not drawn) [compound 1, reference compound], for which the IC50 at GST-LC3B (Table 2, comparative compounds) came to 46 µM. Besides, the “ΔT (melting temperature shift)” value at LC3B (1-125) [2] (Table 2, comparative compounds) was determined as 0 °C.
With `CCNC(=S)N1CCN(CCNC=C2C(=O)CC(c3ccccc3)CC2=O)CC1` (stereo not drawn) [F, 5-phenyl-2-(((2-(4-(ethyl-aminothiocarbonyl)piperazin-1-yl)ethyl)amino)methylene) cyclohexane-1,3-dione], at GST-LC3B (Table 1, 25° C.), the IC50 came out at 6.54 µM.
